Measurements taken from ChEMBL document CHEMBL5050847, “Targeting pleckstrin-2 for treating cancer” (2020).
The source made the active and inactive calls.

Legend:
[1] = Inhibition of Plek2 in Ter119-positive mouse fetal liver erythroid progenitor cells cultured in erythropoietin containing medium assessed as decrease in terminal enucleation of erythroblasts measured by HTS assay; type: tissue-based
COS-7 = assay: Inhibition of Plek2 in African green monkey COS-7 cells overexpressing Plek2 at 10 uM assessed as decrease in lamellipodia formation; type: cell-based; settings: Chlorocebus aethiops
Homo sapiens = species on record: Homo sapiens; assay: Binding affinity towards GST-tagged Plek2 (unknown origin) at 200 uM measured by isothermal calorimetry (ITC) assay relative to control
[2] = Inhibition of Plek2 in Ter119-positive mouse fetal liver erythroid progenitor cells cultured in erythropoietin containing medium assessed as decrease in cell proliferation measured by HTS assay; type: tissue-based
[3] = Inhibition of Plek2 in Ter119-negative mouse fetal liver erythroid progenitor cells overexpressing Plek2 cultured in erythropoietin containing medium assessed as decrease in cell proliferation measured by HTS assay; type: tissue-based
Jurkat = assay: Effect on Plek2 cell membrane localization in human Jurkat cells overexpressing GFP-Plek2 at 100 nM measured by real-time confocal imaging analysis; type: functional, cell-based
Bone marrow cell = assay: Inhibition of Plek2 in mouse bone marrow lineage negative cells expressing wild-type Plek2 and treated with erythropoietin at 10 uM assessed as inhibition of Akt phosphorylation measured by western blot analysis; type: cell-based
[4] = Acute toxicity in mouse assessed as drug tolerability time at 40 mg/kg, ip administered as single dose; type: organism-based; settings: in vivo
Mus musculus [5] = assay: Protection against erythropoietin-induced myeloproliferation in wild type mouse assessed as reduction in leucocytosis at 40 mg/kg, ip administered every 2 days for 8 days; type: functional, organism-based; settings: time 2.0 day
Mus musculus [6] = assay: Protection against erythropoietin-induced myeloproliferation in wild type mouse assessed as reduction in reticulocytosis at 40 mg/kg, ip administered every 2 days for 8 days; type: functional, organism-based; settings: time 2.0 day
Mus musculus [7] = assay: Protection against erythropoietin-induced myeloproliferation in wild type mouse assessed as reduction in splenomegaly at 40 mg/kg, ip administered every 2 days for 8 days; type: functional, organism-based; settings: time 2.0 day
Mus musculus [8] = assay: Protection against erythropoietin-induced myeloproliferation in wild type mouse assessed as reduction in vascular occlusions at 40 mg/kg, ip administered every 2 days for 8 days; type: functional, organism-based; settings: time 2.0 day
Mus musculus [9] = assay: Protection against erythropoietin-induced myeloproliferation in wild type mouse assessed as reduction in erythrocytosis in spleen red pulp at 40 mg/kg, ip administered every 2 days for 8 days; type: functional, organism-based; settings: time 2.0 day
Mus musculus [10] = assay: Protection against erythropoietin-induced myeloproliferation in wild type mouse assessed as improvement in lung vasculature at 40 mg/kg, ip administered every 2 days for 8 days; type: functional, organism-based; settings: time 2.0 day
[11] = Toxicity in wild type mouse assessed as hematologic abnormalities at 40 mg/kg, ip administered every 2 days for 8 days; type: organism-based; settings: in vivo, 48 h, time 2 day
Mus musculus [12] = assay: Protection against Jak2 V617F-konckin induced myeloproliferation in mouse assessed as normalization of white blood cell count at 25 mg/kg, ip administered once every two days; type: functional, organism-based; settings: time 2.0 day
Mus musculus [13] = assay: Protection against Jak2 V617F-konckin induced myeloproliferation in mouse assessed as reduction in red blood cell count at 25 mg/kg, ip administered once every two days; type: functional, organism-based; settings: time 2.0 day
Mus musculus [14] = assay: Protection against Jak2 V617F-konckin induced myeloproliferation in mouse assessed as reduction in spleen size at 25 mg/kg, ip administered once every two days; type: functional, organism-based; settings: time 2.0 day
Mus musculus [15] = assay: Protection against Jak2 V617F-konckin induced myeloproliferation in mouse assessed as reduction in extramedullary erythropoiesis at 25 mg/kg, ip administered once every two days; type: functional, organism-based; settings: time 2.0 day
Mus musculus [16] = assay: Protection against Jak2 V617F-konckin induced myeloproliferation in mouse assessed as reduction in vascular occlusions in lung at 25 mg/kg, ip administered once every two days; type: functional, organism-based; settings: time 2.0 day
[17] = Toxicity in Jak2 V617F-konckin induced myeloproliferation in mouse assessed as induction of side effects at 25 mg/kg, ip administered once every two days; type: organism-based; settings: in vivo, 48 h, time 2 day

O=C(c1c[nH]c2ccccc12)C(O)C(c1ccccc1)N1CCN(CCO)CC1 (stereo unspecified)
40 µM: IC50 [1] | IC50 [2]
active: inhibition (COS-7) | Activity (Homo sapiens)

CN1CCN(C(c2ccc(Cl)cc2)C(O)C(=O)c2c[nH]c3ccccc23)CC1 (stereo unspecified)
2 days: Time [4]
active: Activity (Jurkat) | inhibition (Bone marrow cell) | Activity (Mus musculus [5]) | Activity (Mus musculus [6]) | Activity (Mus musculus [7]) | Activity (Mus musculus [8]) | Activity (Mus musculus [9]) | Activity (Mus musculus [10]) | Activity (Mus musculus [12]) | Activity (Mus musculus [13]) | Activity (Mus musculus [14]) | Activity (Mus musculus [15]) | Activity (Mus musculus [16])
Non-Toxic: Activity [11] | Activity [17]
< 10 µM: IC50 [3]
